For 14 compounds, TGI and GI50 results are on record in PubChem BioAssay (NCI).

Common to all, as to assay: NCI tumour cell line growth inhibition, 48 h
Experiment [1] concerns SR leukemia.
Experiment [2] relates to SK-MEL-2 melanoma.
Experiment [3] concerns HCT-116 colon.
Experiment [4] has as its system NCI-H23 lung.
Experiment [5] has as its system BT-549 breast.
The test system of experiment [6] is HCC-2998 colon.
In experiment [7] the test system is MDA-MB-435.
Experiment [8] deals with U251 CNS.
The test system of experiment [9] is SNB-19 CNS.
For experiment [10], the system named is OVCAR-3 ovarian.

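Protocol summary: plate cells (96-well), add compound at 5 concentrations, incubate 48 h, interpolate endpoints linearly. Here, GI50 denotes the concentration required for 50% inhibition of growth. Definition used: TGI = concentration required for complete inhibition of growth.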

Regarding `COc1ccccc1N1C(=O)/C(=C\c2ccccc2)SC1c1cc(OC)c(OC)c(OC)c1` (stereo not drawn), the TGI in [1] is over 100 µM; in [2] it was 33 µM; in experiment [3], over 100 µM; in experiment [4], over 100 µM; in experiment [5], over 100 µM; in experiment [6], over 100 µM. Moreover, the results for the TGI in experiment [7], in experiment [8] and in experiment [9] were 46.5 µM, 74.2 µM and over 100 µM, respectively.

In the case of `O=[N+]([O-])c1ccc(N/N=C\c2ccc(O)cc2O)nc1`, the GI50 was 5.21 µM in experiment [2]; 2.11 µM in [3]; 3.39 µM in experiment [4]; 6.06 µM in experiment [5]; 3.94 µM in [6]; 3.14 µM in [7]. Moreover, the GI50 was 0.398 µM in experiment [10], 2.08 µM in [8] and 3.24 µM in experiment [9]. In addition, the TGI in experiment [2], in [3], in experiment [4], in experiment [5], in experiment [6] and in experiment [7] was over 100 µM throughout. Moreover, the results for the TGI in [10], in experiment [8] and in [9] were 42.1 µM, over 100 µM and over 100 µM, respectively.

For `O=c1oc2ccc([N+](=O)[O-])cc2cc1-c1csc(-c2ccccc2)n1`, the TGI in experiment [1], in experiment [2], in experiment [3], in [5], in [6] and in experiment [7] was over 100 µM in each case. Further, the TGI in [8] and in [9] was over 100 µM in each case.

For `O=C(O)Cc1ccc(-n2nnc3c(=O)[nH][nH]c(=O)c32)cc1`, the TGI in experiment [1], in experiment [2], in experiment [3], in [4], in experiment [5] and in experiment [6] was over 100 µM in each case. For the same compound, the TGI in experiment [7], in experiment [10], in [8] and in [9] was over 100 µM each time.

As for `O=[N+]([O-])C(=C(\Cl)NCCO)/C(Cl)=C(/Cl)Br`, the TGI in experiment [1] amounted to 5.25 µM; in [2], 4.14 µM; in [3] it was 5.18 µM; in experiment [4] it was 11.1 µM; in experiment [5], 4.2 µM; in experiment [6] it was 11.1 µM. Further, the TGI came to 2.67 µM in experiment [7], 2.62 µM in experiment [10], 6.27 µM in experiment [8] and 18 µM in [9].

As to `COC(=O)CC(c1ccccc1)C(C#N)(OP1(=O)OC(c2ccccc2)C(C)N1C)c1ccccc1` (stereo not drawn), the TGI in experiment [2] was 92.6 µM; in experiment [3], over 100 µM; in experiment [4], over 100 µM; in experiment [5] it was over 100 µM; in experiment [6], over 100 µM; in experiment [7] it was over 100 µM. In addition, the TGI in [10], in [8] and in experiment [9] was over 100 µM in each case.

Turning to `COC1=C2C[C@](OC)(C#CC=CC#CC2O)CC1(C)C` (stereo partly drawn), the TGI in [1], in experiment [3], in experiment [4], in experiment [5], in [6] and in [7] was over 100 µM in each case. Moreover, the TGI in [10], in experiment [8] and in [9] was over 100 µM each time.

Take `CN(C)CCNc1nc2c(c(=O)n(C)c(=O)n2C)n1C`: the TGI in [1], in [3], in experiment [4], in experiment [5], in experiment [7] and in experiment [10] was over 100 µM throughout. Besides, the TGI in experiment [8] and in experiment [9] was over 100 µM each time.

`COc1ccc(C(CC(=O)c2ccc(O)cc2)C(C(=O)c2ccc(O)cc2)C(c2ccc(OC)cc2)C2C(=O)NC(=S)NC2=O)cc1` (stereo not drawn): the TGI in experiment [1] was over 100 µM; in experiment [2], 70.8 µM; in [3], 30.4 µM; in experiment [5], 47.9 µM; in [7], 61.2 µM; in experiment [8] it was 72.3 µM. In experiment [9], the TGI was found to be 43.7 µM.

Take `COc1ccccc1NC(=O)C(=O)C(C#N)CC(C)(C)C=O` (stereo not drawn): the TGI in experiment [1], in experiment [2], in [3], in [4], in [5] and in [6] was over 100 µM in each case. Moreover, the TGI in experiment [7], in experiment [10] and in [8] was over 100 µM in each case.

With `COc1ccc(-c2cc(-c3ccncc3)nc(N)c2-c2ccc(F)cc2)cc1`, the TGI in [1] was 38.7 µM; in experiment [2] it was over 100 µM; in experiment [3], 51.7 µM; in experiment [4] it was over 100 µM; in experiment [5], over 100 µM; in experiment [7], over 100 µM. The TGI in [10], in experiment [8] and in experiment [9] was over 100 µM each time.

As for `CC1(C)CC(=O)C(/C=N/c2nc(-c3cccc([N+](=O)[O-])c3)cs2)=C(O)C1`, the TGI in experiment [2] is over 100 µM; in experiment [3] it was 28.1 µM; in experiment [4] it was 37.3 µM; in experiment [5], 54 µM; in experiment [6], 29.1 µM; in experiment [7] it was 60.7 µM. Besides, the figures for the TGI in [10], in experiment [8] and in experiment [9] were over 100 µM, 46.4 µM and 46.9 µM, respectively.

For the compound `[B]C(=O)NC(CC(C)C)C(=O)NC1c2ccsc2C(=O)C1O` (stereo not drawn) (tested in a mixture with another compound), the TGI in experiment [1], in experiment [2], in experiment [3], in experiment [4], in experiment [5] and in [6] was over 100 µM in each case. Moreover, the TGI in experiment [7], in experiment [8] and in experiment [9] was over 100 µM throughout.

Regarding `Cc1cn(C2CC(/[N+]([O-])=N\Nc3ccc([N+](=O)[O-])cc3)C(CO)O2)c(=O)[nH]c1=O` (stereo not drawn), the TGI in experiment [1], in [3], in experiment [4], in experiment [5], in [6] and in [7] was over 100 µM each time. Besides, the TGI in experiment [10], in experiment [8] and in [9] was over 100 µM throughout.
